The supplement of paper PMC10307832

Key:
Experiment in all cases: relative viability (nuclei count vs DMSO), 5 days (fraction); higher = more cells survive
[1] = test system: NCI-H727
Summary of the method: (§1)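 Lung cancer cell lines were seeded in 1536-well plates and dosed by pin tool the next day, with either a single drug or a fixed anchor-drug dose combined with five library-drug doses (not always all listed) spaced in √10 steps. Five days later, one step fixed the cells and stained their nuclei (final 0.05% Triton X-100, 1% formaldehyde, 1 ug/ml Hoechst), and nuclei were counted on 4× images. Relative viability is the nuclei count in treated wells divided by the count in vehicle wells, and each value is the median of duplicate plates.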

[2] = test system: LK-2
Summary of the method: as §1

[3] = test system: NCI-H1792
Summary of the method: as §1

[4] = test system: EMC-BAC-2
Summary of the method: as §1

[5] = test system: LXF-289
Summary of the method: as §1

[6] = test system: NCI-H1793
Summary of the method: as §1

[7] = test system: A-427
Summary of the method: as §1

[8] = test system: HARA
Summary of the method: as §1

[9] = test system: NCI-H3122
Summary of the method: as §1

[10] = test system: NCI-H2170
Summary of the method: as §1

[11] = test system: NCI-H596
Summary of the method: as §1

[12] = test system: SW 900
Summary of the method: as §1

[13] = test system: PC-3 [JPC-3]
Summary of the method: as §1

[14] = test system: ABC-1
Summary of the method: as §1

[15] = test system: NCI-H1993
Summary of the method: as §1

[16] = test system: NCI-H1944
Summary of the method: as §1

[17] = test system: HOP-62
Summary of the method: as §1

`CC1(C)CCC(c2ccc(Cl)cc2)=C(CN2CCN(c3ccc(C(=O)NS(=O)(=O)c4ccc(N[C@H](CCN5CCOCC5)CSc5ccccc5)c(S(=O)(=O)C(F)(F)F)c4)cc3)CC2)C1` [Navitoclax] + NC(=O)Nc1cc(-c2cccc(F)c2)sc1C(=O)N[C@H]1CCCNC1 [AZD7762] (partner 0.2 µM) showed a relative viability ([1]; first compound 0.005 µM) of 0.656, a relative viability ([1]; first compound 0.01581 µM) of 0.595 and a relative viability ([1]; first compound 0.05 µM) of 0.539. It also gave a relative viability ([1]; first compound 0.1581 µM) of 0.674, a relative viability ([1]; first compound 0.5 µM) of 0.594 and a relative viability ([2]; first compound 0.005 µM) of 0.593. The relative viability ([2]; first compound 0.01581 µM) was 0.567, the relative viability ([2]; first compound 0.05 µM) was 0.295 and the relative viability ([2]; first compound 0.1581 µM) was 0.358. For the same molecule, the relative viability ([2]; first compound 0.5 µM) was 0.351, the relative viability ([3]; first compound 0.005 µM) was 0.593 and the relative viability ([3]; first compound 0.01581 µM) was 0.77. The relative viability ([3]; first compound 0.1581 µM) was 0.559, the relative viability ([3]; first compound 0.5 µM) was 0.502 and the relative viability ([4]; first compound 0.005 µM) was 1.03. For the same molecule, the relative viability ([4]; first compound 0.01581 µM) was 1.26, the relative viability ([4]; first compound 0.05 µM) was 1.07 and the relative viability ([4]; first compound 0.1581 µM) was 1.09. It also gave a relative viability ([4]; first compound 0.5 µM) of 1.13, a relative viability ([5]; first compound 0.005 µM) of 1.11 and a relative viability ([5]; first compound 0.01581 µM) of 1.18. For the same molecule, the relative viability ([5]; first compound 0.05 µM) was 0.924, the relative viability ([5]; first compound 0.1581 µM) was 1.06 and the relative viability ([5]; first compound 0.5 µM) was 1.04. It also gave a relative viability ([6]; first compound 0.005 µM) of 0.488, a relative viability ([6]; first compound 0.01581 µM) of 0.613 and a relative viability ([6]; first compound 0.1581 µM) of 0.402. The relative viability ([6]; first compound 0.5 µM) was 0.246, the relative viability ([7]; first compound 0.005 µM) was 0.79 and the relative viability ([7]; first compound 0.01581 µM) was 0.822. For the same molecule, the relative viability ([7]; first compound 0.05 µM) was 0.639, the relative viability ([7]; first compound 0.1581 µM) was 0.722 and the relative viability ([7]; first compound 0.5 µM) was 0.718. It also gave a relative viability ([8]; first compound 0.005 µM) of 0.385, a relative viability ([8]; first compound 0.01581 µM) of 0.444 and a relative viability ([8]; first compound 0.05 µM) of 0.212. For the same molecule, the relative viability ([8]; first compound 0.1581 µM) was 0.228, the relative viability ([8]; first compound 0.5 µM) was 0.32 and the relative viability ([9]; first compound 0.005 µM) was 0.982. For the same molecule, the relative viability ([9]; first compound 0.01581 µM) was 0.971, the relative viability ([9]; first compound 0.05 µM) was 0.895 and the relative viability ([9]; first compound 0.1581 µM) was 0.973. The relative viability ([9]; first compound 0.5 µM) was 0.985, the relative viability ([10]; first compound 0.005 µM) was 0.883 and the relative viability ([10]; first compound 0.01581 µM) was 0.912. The relative viability ([10]; first compound 0.05 µM) was 0.845, the relative viability ([10]; first compound 0.1581 µM) was 0.798 and the relative viability ([10]; first compound 0.5 µM) was 0.623. It also gave a relative viability ([11]; first compound 0.005 µM) of 1.32, a relative viability ([11]; first compound 0.01581 µM) of 1.26 and a relative viability ([11]; first compound 0.05 µM) of 0.919. For the same molecule, the relative viability ([11]; first compound 0.1581 µM) was 1.05, the relative viability ([11]; first compound 0.5 µM) was 1.05 and the relative viability ([12]; first compound 0.005 µM) was 0.538. The relative viability ([12]; first compound 0.01581 µM) was 0.651, the relative viability ([12]; first compound 0.1581 µM) was 0.573 and the relative viability ([12]; first compound 0.5 µM) was 0.476. The relative viability ([13]; first compound 0.005 µM) was 0.726, the relative viability ([13]; first compound 0.01581 µM) was 0.972 and the relative viability ([13]; first compound 0.05 µM) was 0.483. For the same molecule, the relative viability ([13]; first compound 0.1581 µM) was 0.702, the relative viability ([13]; first compound 0.5 µM) was 0.759 and the relative viability ([14]; first compound 0.005 µM) was 0.816. It also gave a relative viability ([14]; first compound 0.01581 µM) of 1.22, a relative viability ([14]; first compound 0.1581 µM) of 0.687 and a relative viability ([14]; first compound 0.5 µM) of 0.72. For the same molecule, the relative viability ([15]; first compound 0.005 µM) was 0.738, the relative viability ([15]; first compound 0.01581 µM) was 1.05 and the relative viability ([15]; first compound 0.05 µM) was 0.552. It also gave a relative viability ([15]; first compound 0.1581 µM) of 0.721, a relative viability ([15]; first compound 0.5 µM) of 0.641 and a relative viability ([16]; first compound 0.005 µM) of 0.52. It also gave a relative viability ([16]; first compound 0.01581 µM) of 0.637, a relative viability ([16]; first compound 0.1581 µM) of 0.489 and a relative viability ([16]; first compound 0.5 µM) of 0.582. The relative viability ([17]; first compound 0.005 µM) was 0.721, the relative viability ([17]; first compound 0.01581 µM) was 0.694 and the relative viability ([17]; first compound 0.05 µM) was 0.514. It also gave a relative viability ([17]; first compound 0.1581 µM) of 0.512 and a relative viability ([17]; first compound 0.5 µM) of 0.384.
